From patent US20240279207A1, “SUBSTITUTED ACYL SULFONAMIDES FOR TREATING CANCER” (The Broad Institute, Inc., priority 2020, published 2024) come the findings set out here.

Test [1] has as its target T1, Recombinant human His-tagged Kat6a protein (amino acids 194-810) (Homo sapiens, UniProt Q92794).
T1 construct: Kat6a protein (amino acids 194-810); His
Put plainly: Kat6a activity assay (TR-FRET, acetylation of Histone-H4-derived peptide). The format is biochemical. Conditions: 60 mins at 22° C., 220 nM H4 peptide, 600 nM Acetyl Coenzyme A, read-out: KAT6A - DPF/HAT domain IC50 [mol/l] (arithmetic mean). For orientation: In TR-FRET formats the signal depends on donor and acceptor labels being close together.

Test [2] relates to ESR1 transcription in MVLN cells. Put plainly: MVLN reporter assay: repression of ESR1 transcription (luciferase signal). Format: cell-based. The conditions noted are these: Homo sapiens, MVLN, 24 h, luciferase signal after 24 h, read-out: MVLN reporter assay, IC50 [M] (arithmetic mean). In a few lines: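 MVLN cells, expressing ER and stably carrying a vitellogenin A2 ERE-luciferase reporter, treated with compound in duplicate; luciferase read after 24 h with Steadylite plus. Cell density checked in parallel by Alamar Blue fluorescence (530/590 nm, 2 h) before the luciferase read.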
(Reporter assays use an easily measured gene product as a stand-in for the process of interest.)

Structures are written as SMILES. Where only a bound is given, the exact number is not on record here.

T1 sequence (Q92794 194-810): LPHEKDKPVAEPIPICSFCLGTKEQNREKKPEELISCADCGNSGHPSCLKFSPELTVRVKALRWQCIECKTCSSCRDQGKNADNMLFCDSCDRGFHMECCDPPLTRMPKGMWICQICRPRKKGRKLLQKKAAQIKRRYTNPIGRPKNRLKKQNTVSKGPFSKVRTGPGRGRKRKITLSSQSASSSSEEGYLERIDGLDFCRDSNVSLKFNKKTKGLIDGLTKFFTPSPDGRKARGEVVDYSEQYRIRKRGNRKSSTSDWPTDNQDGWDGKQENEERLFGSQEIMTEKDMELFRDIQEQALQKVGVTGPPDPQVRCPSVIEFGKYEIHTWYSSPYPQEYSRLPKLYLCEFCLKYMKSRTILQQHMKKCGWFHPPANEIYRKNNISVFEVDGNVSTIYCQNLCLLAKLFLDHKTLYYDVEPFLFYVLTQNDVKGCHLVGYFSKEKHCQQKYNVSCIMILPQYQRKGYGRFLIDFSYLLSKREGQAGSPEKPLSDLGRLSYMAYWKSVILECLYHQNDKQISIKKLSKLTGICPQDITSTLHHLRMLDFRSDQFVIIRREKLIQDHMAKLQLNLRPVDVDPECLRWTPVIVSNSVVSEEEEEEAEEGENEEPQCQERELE

In the case of `CCS(=O)(=O)c1nc2ccccn2c1S(=O)(=O)NC(=O)c1cc2c(F)cc(N3CCC3)cc2o1` [Example 167, 6-(Azetidin-1-yl)-N-[2-(ethanesulfonyl)imidazo[1,2-a]pyridine-3-sulfonyl]-4-fluoro-1-benzofuran-2-carboxamide], the IC50 in test [1] was 517 nM; in test [2], above 2e-05 M.
Taken in the same sequence, the figures for `O=C(NS(=O)(=O)c1cnc2c(Cl)cc(Cl)cn12)c1cc2c(F)cc(N3CCC3)cc2o1` [Example 168, 6-(Azetidin-1-yl)-N-(6,8-dichloroimidazo[1,2-a]pyridine-3-sulfonyl)-4-fluoro-1-benzofuran-2-carboxamide] were 671 nM and above 2e-05 M.
Taken in the same sequence, the figures for `CC(C)Oc1ccc(Br)cc1S(=O)(=O)NC(=O)c1cc2c(F)cc(N3CCC3)cc2o1` [Example 170, 6-(azetidin-1-yl)-N-{5-bromo-2-[(propan-2-yl)oxy]benzene-1-sulfonyl}-4-fluoro-1-benzofuran-2-carboxamide] were 10.5 nM and 1.33e-07 M.
With `O=C(NS(=O)(=O)c1cccc2c1OCCO2)c1cc2c(F)cc(N3CCC3)cc2o1` [Example 172, 6-(Azetidin-1-yl)-N-(2,3-dihydro-1,4-benzodioxine-5-sulfonyl)-4-fluoro-1-benzofuran-2-carboxamide], the IC50 came to 34 nM in test [1] and 1.35e-07 M in test [2].
Taken in the same sequence, the figures for `Cc1ccc2cccnc2c1S(=O)(=O)NC(=O)c1cc2c(F)cc(N3CCC3)cc2o1` [Example 173, 6-(Azetidin-1-yl)-4-fluoro-N-(7-methylquinoline-8-sulfonyl)-1-benzofuran-2-carboxamide] were 65.7 nM and 1.58e-07 M.
The matching figures for `COc1cc(Br)ccc1S(=O)(=O)NC(=O)c1cc2c(F)cc(N3CCC3)cc2o1` [Example 174, 6-(Azetidin-1-yl)-N-(4-bromo-2-methoxybenzene-1-sulfonyl)-4-fluoro-1-benzofuran-2-carboxamide]: 26.5 nM and 1.65e-07 M.
As for `Cc1cc(S(=O)(=O)NC(=O)c2cc3c(F)cc(N4CCC4)cc3o2)c2ncccc2c1` [Example 175, 6-(Azetidin-1-yl)-4-fluoro-N-(6-methylquinoline-8-sulfonyl)-1-benzofuran-2-carboxamide], the results for the IC50 in test [1] and in test [2] were 44.9 nM and 1.65e-07 M, respectively.
`O=C(NS(=O)(=O)c1c[nH]c2ccccc12)c1cc2c(F)cc(N3CCC3)cc2o1` [Example 176, 6-(Azetidin-1-yl)-4-fluoro-N-(1H-indole-3-sulfonyl)-1-benzofuran-2-carboxamide]: the IC50 in test [1] was 26.8 nM; in test [2], 1.88e-07 M.
Taken in the same sequence, the figures for `O=C(NS(=O)(=O)c1cc(Br)cc2c1OCC2)c1cc2c(F)cc(N3CCC3)cc2o1` [Example 177, 6-(Azetidin-1-yl)-N-(5-bromo-2,3-dihydro-1-benzofuran-7-sulfonyl)-4-fluoro-1-benzofuran-2-carboxamide] were 21.4 nM and 2.24e-07 M.
In the case of `O=C(NS(=O)(=O)c1csc2ccccc12)c1cc2c(F)cc(N3CCC3)cc2o1` [Example 178, 6-(Azetidin-1-yl)-N-(1-benzothiophene-3-sulfonyl)-4-fluoro-1-benzofuran-2-carboxamide], the IC50 in test [1] was 35.3 nM; in test [2] it was 3.16e-07 M.
The matching figures for `Cn1nc2cccc(S(=O)(=O)NC(=O)c3cc4c(F)cc(N5CCC5)cc4o3)c2n1` [Example 179, 6-(Azetidin-1-yl)-4-fluoro-N-(2-methyl-2H-benzotriazole-4-sulfonyl)-1-benzofuran-2-carboxamide]: 66.6 nM and 5.53e-07 M.
As for `COc1ccc(S(=O)(=O)NC(=O)c2cc3c(F)cc(N4CCC4)cc3o2)c2c1CCCC2` [Example 180, 6-(Azetidin-1-yl)-4-fluoro-N-(4-methoxy-5,6,7,8-tetrahydronaphthalene-1-sulfonyl)-1-benzofuran-2-carboxamide], the IC50 came to 35.9 nM in test [1] and 6.28e-07 M in test [2].
Taken in the same sequence, the figures for `O=C(NS(=O)(=O)c1cccc2nsnc12)c1cc2c(F)cc(N3CCC3)cc2o1` [Example 181, 6-(Azetidin-1-yl)-N-(2,1,3-benzothiadiazole-4-sulfonyl)-4-fluoro-1-benzofuran-2-carboxamide] were 89.5 nM and 6.47e-07 M.
In the case of `COc1ccc2snnc2c1S(=O)(=O)NC(=O)c1cc2c(F)cc(N3CCC3)cc2o1` [Example 182, 6-(Azetidin-1-yl)-4-fluoro-N-(5-methoxy-1,2,3-benzothiadiazole-4-sulfonyl)-1-benzofuran-2-carboxamide], the values for the IC50 in test [1] and in test [2] were 55.1 nM and 8.48e-07 M, respectively.
`COc1c(S(=O)(=O)NC(=O)c2cc3c(F)cc(N4CCC4)cc3o2)ccc(Cl)c1Cl` [Example 183, 6-(Azetidin-1-yl)-N-(3,4-dichloro-2-methoxybenzene-1-sulfonyl)-4-fluoro-1-benzofuran-2-carboxamide]: the IC50 stood at 82.8 nM in test [1] and 9.24e-07 M in test [2].
As for `O=C(NS(=O)(=O)c1cnn2c1OCCC2)c1cc2c(F)cc(N3CCC3)cc2o1` [Example 184, 6-(Azetidin-1-yl)-N-(6,7-dihydro-5H-pyrazolo[5,1-b][1,3]oxazine-3-sulfonyl)-4-fluoro-1-benzofuran-2-carboxamide], the IC50 was 294 nM in test [1] and 5.21e-06 M in test [2].
Take `CC(=O)Nc1ccc(S(=O)(=O)NC(=O)c2cc3c(F)cc(N4CCC4)cc3o2)c2ccccc12` [Example 185, N-(4-Aacetamidonaphthalene-1-sulfonyl)-6-(azetidin-1-yl)-4-fluoro-1-benzofuran-2-carboxamide]: the IC50 was 195 nM in test [1] and 9.61e-06 M in test [2].
The matching figures for `O=C(NS(=O)(=O)c1cnc2ccccn12)c1cc2c(F)cc(N3CCC3)cc2o1` [Example 186, 6-(Azetidin-1-yl)-4-fluoro-N-(imidazo[1,2-a]pyridine-3-sulfonyl)-1-benzofuran-2-carboxamide]: 1630 nM and 1.7e-05 M.
Taken in the same sequence, the figures for `O=C(NS(=O)(=O)c1cccc2cnccc12)c1cc2c(F)cc(N3CCC3)cc2o1` [Example 187, 6-(Azetidin-1-yl)-4-fluoro-N-(isoquinoline-5-sulfonyl)-1-benzofuran-2-carboxamide] were 1530 nM and 1.85e-05 M.
The matching figures for `O=C(NS(=O)(=O)c1cccc2c(N3CCOCC3)cccc12)c1cc2c(F)cc(N3CCC3)cc2o1` [Example 188, 6-(Azetidin-1-yl)-4-fluoro-N-[5-(morpholin-4-yl)naphthalene-1-sulfonyl]-1-benzofuran-2-carboxamide]: 132 nM and 2.55e-06 M.
Regarding `Cc1cc(C(C)(C)C)cc(S(=O)(=O)NC(=O)c2cc3c(F)cc(N4CCC4)cc3o2)c1C` [Example 189, 6-(Azetidin-1-yl)-N-(5-tert-butyl-2,3-dimethylbenzene-1-sulfonyl)-4-fluoro-1-benzofuran-2-carboxamide], the results for the IC50 in test [1] and in test [2] were 8.59 nM and 1.3e-07 M, respectively.
Turning to `CC1(C)COc2ccc(S(=O)(=O)NC(=O)c3cc4c(F)cc(N5CCC5)cc4o3)cc21` [Example 190, 6-(Azetidin-1-yl)-N-(3,3-dimethyl-2,3-dihydro-1-benzofuran-5-sulfonyl)-4-fluoro-1-benzofuran-2-carboxamide], the IC50 amounted to 72.9 nM in test [1] and 1.93e-07 M in test [2].
`Cc1ccc(S(=O)(=O)NC(=O)c2cc3c(F)cc(N4CCC4)cc3o2)c2ccncc12` [Example 191, 6-(Azetidin-1-yl)-4-fluoro-N-(8-methylisoquinoline-5-sulfonyl)-1-benzofuran-2-carboxamide]: the figures for the IC50 in test [1] and in test [2] were 301 nM and 4.99e-06 M, respectively.
For `COC(=O)Nc1cccc2c(S(=O)(=O)NC(=O)c3cc4c(F)cc(N5CCC5)cc4o3)cccc12` [Example 192, Methyl (5-{[6-(azetidin-1-yl)-4-fluoro-1-benzofuran-2-carbonyl]sulfamoyl}naphthalen-1-yl)carbamate], the IC50 is 2000 nM in test [1] and above 2e-05 M in test [2].
Taken in the same sequence, the figures for `Cc1cncc2cccc(S(=O)(=O)NC(=O)c3cc4c(F)cc(N5CCC5)cc4o3)c12` [Example 193, 6-(Azetidin-1-yl)-4-fluoro-N-(4-methylisoquinoline-5-sulfonyl)-1-benzofuran-2-carboxamide] were 4820 nM and above 2e-05 M.
As to `COc1ccc(-c2c(C)noc2C)cc1S(=O)(=O)NC(=O)c1cc2c(F)cc(N3CCC3)cc2o1` [Example 194, 6-(Azetidin-1-yl)-N-[5-(3,5-dimethyl-1,2-oxazol-4-yl)-2-methoxybenzene-1-sulfonyl]-4-fluoro-1-benzofuran-2-carboxamide], the figures for the IC50 in test [1] and in test [2] were 4.19 nM and 7.76e-08 M, respectively.
Taken in the same sequence, the figures for `COc1ccc(-c2cccc(F)c2)cc1S(=O)(=O)NC(=O)c1cc2c(F)cc(N3CCC3)cc2o1` [Example 198, 6-(Azetidin-1-yl)-4-fluoro-N-(3′-fluoro-4-methoxy[1,1′-biphenyl]-3-sulfonyl)-1-benzofuran-2-carboxamide] were 11.6 nM and 2.95e-07 M.
For the molecule `COc1ccc(-c2cnn(C)c2)cc1S(=O)(=O)NC(=O)c1cc2c(F)cc(N3CCC3)cc2o1` [Example 199, 6-(Azetidin-1-yl)-4-fluoro-N-[2-methoxy-5-(1-methyl-1H-pyrazol-4-yl)benzene-1-sulfonyl]-1-benzofuran-2-carboxamide], the IC50 is 32.3 nM in test [1] and 5.49e-07 M in test [2].
`COc1ccc(-c2cccnc2)cc1S(=O)(=O)NC(=O)c1cc2c(F)cc(N3CCC3)cc2o1` [Example 200, 6-(Azetidin-1-yl)-4-fluoro-N-[2-methoxy-5-(pyridin-3-yl)benzene-1-sulfonyl]-1-benzofuran-2-carboxamide]: the IC50 in test [1] is 34.1 nM; in test [2] it was 5.5e-07 M.
